Source: ChEMBL document CHEMBL1201862, “PubChem BioAssay data set” (2004)
Active and inactive are the calls of the source.

How the values were obtained:
Leucine aminopeptidase = target: T1, Leucine aminopeptidase (Plasmodium falciparum 3D7, UniProt Q8IL11); experiment: P. falciparum M17LAP inhibitors, primary screen, biochemical, fluorogenic H-Leu-NHMec substrate, 1536-well (AID 1619); format: functional
T1 sequence (Q8IL11 whole entry): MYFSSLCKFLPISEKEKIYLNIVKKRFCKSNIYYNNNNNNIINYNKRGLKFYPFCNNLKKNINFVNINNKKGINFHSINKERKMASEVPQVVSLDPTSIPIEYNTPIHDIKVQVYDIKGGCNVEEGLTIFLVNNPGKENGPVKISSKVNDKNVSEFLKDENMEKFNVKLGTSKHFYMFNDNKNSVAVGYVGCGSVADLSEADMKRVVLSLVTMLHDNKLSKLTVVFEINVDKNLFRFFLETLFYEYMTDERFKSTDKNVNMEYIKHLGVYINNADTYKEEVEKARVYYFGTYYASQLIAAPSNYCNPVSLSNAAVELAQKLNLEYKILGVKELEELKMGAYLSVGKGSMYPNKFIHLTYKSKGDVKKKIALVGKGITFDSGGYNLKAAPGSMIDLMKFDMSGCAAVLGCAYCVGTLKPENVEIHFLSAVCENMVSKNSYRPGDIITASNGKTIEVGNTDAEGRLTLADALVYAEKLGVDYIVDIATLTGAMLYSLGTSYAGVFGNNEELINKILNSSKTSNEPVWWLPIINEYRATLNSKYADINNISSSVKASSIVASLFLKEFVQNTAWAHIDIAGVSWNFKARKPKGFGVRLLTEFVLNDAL

[1] = target: T2, Polyadenylate-binding protein 1 (Homo sapiens, UniProt P11940); experiment: PABP1 MLLE–PAM2 binding inhibitor potency, dose response, biochemical, fluorescence polarization, FITC-PAM2 peptide (AID 602259); format: functional; conditions: read-out: IC50_Mean
T2 sequence (P11940 whole entry): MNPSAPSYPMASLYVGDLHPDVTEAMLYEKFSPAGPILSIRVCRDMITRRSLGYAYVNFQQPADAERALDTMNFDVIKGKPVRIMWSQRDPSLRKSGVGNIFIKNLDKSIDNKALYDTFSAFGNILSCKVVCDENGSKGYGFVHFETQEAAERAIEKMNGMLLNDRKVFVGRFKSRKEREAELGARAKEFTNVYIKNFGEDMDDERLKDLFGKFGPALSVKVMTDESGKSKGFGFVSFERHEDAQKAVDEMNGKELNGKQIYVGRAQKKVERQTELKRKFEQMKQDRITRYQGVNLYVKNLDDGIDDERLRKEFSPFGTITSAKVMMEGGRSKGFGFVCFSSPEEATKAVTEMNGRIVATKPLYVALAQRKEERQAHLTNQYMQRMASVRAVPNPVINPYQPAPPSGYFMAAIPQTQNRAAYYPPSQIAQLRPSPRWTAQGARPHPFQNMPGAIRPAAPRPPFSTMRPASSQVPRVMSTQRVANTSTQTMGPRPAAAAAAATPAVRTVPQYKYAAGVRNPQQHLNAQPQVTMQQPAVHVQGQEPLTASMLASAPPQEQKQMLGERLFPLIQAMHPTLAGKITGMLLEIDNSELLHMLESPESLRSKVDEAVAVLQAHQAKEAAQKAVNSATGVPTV

[2] = target: T2, Polyadenylate-binding protein 1; experiment: PABP1 MLLE–PAM2 interaction inhibitors, dose response, miRNA deadenylation inhibitor project, biochemical, fluorescence polarization, Cy5-PAM2 peptide, secondary (AID 602260); format: functional; conditions: read-out: IC50_Mean
Genome polyprotein = Genome polyprotein (dengue virus type 2, UniProt P29990); experiment: Dengue-2 NS5 methyltransferase inhibitors, primary screen, biochemical, confirmation dose response (AID 588689); format: functional
Genome polyprotein, sequence (P29990 2492-3391 limits assumed): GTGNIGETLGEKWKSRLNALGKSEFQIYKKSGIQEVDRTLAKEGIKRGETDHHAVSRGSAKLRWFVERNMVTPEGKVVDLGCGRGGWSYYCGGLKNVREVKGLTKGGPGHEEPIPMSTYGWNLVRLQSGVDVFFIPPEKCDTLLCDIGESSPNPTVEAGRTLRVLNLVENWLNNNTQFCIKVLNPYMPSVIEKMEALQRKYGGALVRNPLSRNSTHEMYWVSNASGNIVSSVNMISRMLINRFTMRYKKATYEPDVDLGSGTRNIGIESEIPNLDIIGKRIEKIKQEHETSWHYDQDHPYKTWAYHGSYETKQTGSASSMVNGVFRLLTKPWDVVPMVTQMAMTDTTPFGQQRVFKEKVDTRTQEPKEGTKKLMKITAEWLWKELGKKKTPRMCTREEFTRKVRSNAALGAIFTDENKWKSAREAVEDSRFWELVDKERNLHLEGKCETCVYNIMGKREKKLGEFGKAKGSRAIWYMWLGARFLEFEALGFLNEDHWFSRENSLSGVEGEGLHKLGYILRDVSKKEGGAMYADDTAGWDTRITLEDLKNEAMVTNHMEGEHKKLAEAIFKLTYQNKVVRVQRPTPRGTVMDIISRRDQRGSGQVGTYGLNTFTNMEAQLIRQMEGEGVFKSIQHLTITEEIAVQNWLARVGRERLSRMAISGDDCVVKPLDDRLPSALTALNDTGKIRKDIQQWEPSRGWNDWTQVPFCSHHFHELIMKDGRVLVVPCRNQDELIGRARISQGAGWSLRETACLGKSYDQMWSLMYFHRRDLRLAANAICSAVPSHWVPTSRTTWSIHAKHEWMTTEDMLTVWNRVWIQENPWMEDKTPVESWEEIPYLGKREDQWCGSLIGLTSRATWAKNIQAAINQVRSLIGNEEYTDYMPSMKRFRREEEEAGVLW

cells [3] = format: functional, cell-based
cells [4] = format: functional, cell-based; remark: listed apart in the source
Fatty acid synthase [5] = target: T3, Fatty acid synthase (Homo sapiens, UniProt P49327); experiment: FAS thioesterase domain inhibitors, dose response, biochemical, endpoint fluorescence intensity, uHTS hits (AID 624327); format: functional;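 also: fluorescence from hydrolysis of an O-methyl fluorescein acyl ester substrate by the enzyme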
T3 sequence (P49327 whole entry, the tested form may be a part): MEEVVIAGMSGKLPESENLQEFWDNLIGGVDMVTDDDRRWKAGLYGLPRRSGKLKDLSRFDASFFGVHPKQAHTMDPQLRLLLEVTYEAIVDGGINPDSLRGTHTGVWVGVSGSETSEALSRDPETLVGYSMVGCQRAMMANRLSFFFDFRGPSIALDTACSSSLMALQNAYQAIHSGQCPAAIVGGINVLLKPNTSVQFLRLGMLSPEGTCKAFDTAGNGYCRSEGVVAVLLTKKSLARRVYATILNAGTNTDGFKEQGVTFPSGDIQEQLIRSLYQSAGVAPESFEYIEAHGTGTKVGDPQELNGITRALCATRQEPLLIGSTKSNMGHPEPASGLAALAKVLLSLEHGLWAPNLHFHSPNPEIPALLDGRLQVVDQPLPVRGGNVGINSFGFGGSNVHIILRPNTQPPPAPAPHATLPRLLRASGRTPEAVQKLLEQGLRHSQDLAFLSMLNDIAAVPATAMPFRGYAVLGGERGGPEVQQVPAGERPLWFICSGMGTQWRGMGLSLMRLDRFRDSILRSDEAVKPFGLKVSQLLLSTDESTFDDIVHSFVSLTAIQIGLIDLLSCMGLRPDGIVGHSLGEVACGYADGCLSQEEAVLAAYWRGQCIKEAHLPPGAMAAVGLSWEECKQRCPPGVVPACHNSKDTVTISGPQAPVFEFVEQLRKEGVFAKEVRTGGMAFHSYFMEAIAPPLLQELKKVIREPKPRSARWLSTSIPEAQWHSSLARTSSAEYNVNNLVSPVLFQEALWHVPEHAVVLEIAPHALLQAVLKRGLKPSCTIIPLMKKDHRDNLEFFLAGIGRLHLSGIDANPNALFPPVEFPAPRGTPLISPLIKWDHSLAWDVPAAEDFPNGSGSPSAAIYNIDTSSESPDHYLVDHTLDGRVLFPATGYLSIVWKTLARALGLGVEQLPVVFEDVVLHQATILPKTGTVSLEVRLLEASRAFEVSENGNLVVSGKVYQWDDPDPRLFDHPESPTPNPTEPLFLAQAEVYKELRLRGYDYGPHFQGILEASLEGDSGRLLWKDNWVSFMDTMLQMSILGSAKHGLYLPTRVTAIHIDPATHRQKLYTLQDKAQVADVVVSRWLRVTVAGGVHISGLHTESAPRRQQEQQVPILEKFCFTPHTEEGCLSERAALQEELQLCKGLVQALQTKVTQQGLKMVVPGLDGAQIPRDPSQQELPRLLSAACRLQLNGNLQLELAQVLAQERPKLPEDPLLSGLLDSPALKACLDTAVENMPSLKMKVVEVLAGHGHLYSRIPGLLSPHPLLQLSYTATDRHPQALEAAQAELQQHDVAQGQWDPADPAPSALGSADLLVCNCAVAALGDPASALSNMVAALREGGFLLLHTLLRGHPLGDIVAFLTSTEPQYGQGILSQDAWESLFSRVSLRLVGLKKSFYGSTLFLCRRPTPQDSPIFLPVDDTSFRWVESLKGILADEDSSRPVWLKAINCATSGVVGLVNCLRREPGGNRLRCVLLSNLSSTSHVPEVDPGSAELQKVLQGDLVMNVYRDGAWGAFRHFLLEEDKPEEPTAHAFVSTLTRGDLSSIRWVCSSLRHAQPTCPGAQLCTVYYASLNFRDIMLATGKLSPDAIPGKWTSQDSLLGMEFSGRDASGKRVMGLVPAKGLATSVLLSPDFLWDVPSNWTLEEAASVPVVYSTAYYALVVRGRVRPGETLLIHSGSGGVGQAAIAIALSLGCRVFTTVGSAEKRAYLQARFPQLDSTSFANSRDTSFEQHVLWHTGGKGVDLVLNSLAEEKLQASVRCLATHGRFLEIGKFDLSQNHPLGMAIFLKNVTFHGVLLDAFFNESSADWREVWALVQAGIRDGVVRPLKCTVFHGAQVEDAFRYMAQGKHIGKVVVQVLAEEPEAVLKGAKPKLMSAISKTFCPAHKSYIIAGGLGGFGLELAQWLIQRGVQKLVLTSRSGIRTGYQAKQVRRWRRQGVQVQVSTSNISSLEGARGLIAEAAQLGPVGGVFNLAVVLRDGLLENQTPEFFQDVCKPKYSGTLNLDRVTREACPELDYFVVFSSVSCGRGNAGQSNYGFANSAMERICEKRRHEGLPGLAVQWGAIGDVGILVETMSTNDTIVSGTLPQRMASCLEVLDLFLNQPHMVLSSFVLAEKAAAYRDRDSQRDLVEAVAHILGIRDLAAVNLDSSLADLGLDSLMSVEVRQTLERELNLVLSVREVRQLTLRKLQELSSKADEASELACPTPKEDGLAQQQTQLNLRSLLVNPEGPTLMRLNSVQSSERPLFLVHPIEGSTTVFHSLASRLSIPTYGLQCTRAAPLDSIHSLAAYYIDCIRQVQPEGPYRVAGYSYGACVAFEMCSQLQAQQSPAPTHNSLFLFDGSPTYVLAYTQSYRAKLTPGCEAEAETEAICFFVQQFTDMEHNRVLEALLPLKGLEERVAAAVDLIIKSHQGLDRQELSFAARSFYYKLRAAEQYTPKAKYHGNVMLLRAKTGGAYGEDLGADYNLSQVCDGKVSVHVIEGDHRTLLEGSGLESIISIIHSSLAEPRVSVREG

Fatty acid synthase [6] = target: T3, Fatty acid synthase; experiment: FAS thioesterase domain inhibitors, dose response, biochemical, kinetic fluorescence intensity (AID 624326); format: functional;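 also: rate of fluorescence rise from hydrolysis of a fluorogenic O-methyl fluorescein ester substrate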
[7] = Luminescence Cell-Based Dose Confirmation HTS to Identify Activators of 5'UTR Stem-Loop Driven Alpha-Synuclein mRNA Translation in H4 Neuroglioblastoma Cells. [Related pubchem assays: 1829 (Project Summary), 1814 (Primary HTS)]; format: functional
H4 = experiment: Luminescence Cell-Based Dose Response HTS to Identify Activators of 5'UTR Stem-Loop Driven Prion Protein mRNA Translation in H4 Neuroglioblastoma Cells. [Related pubchem assays: 1829 (Project Summary), 1814 (Primary HTS)]; format: functional; conditions: Homo sapiens
[8] = Luminescence Cell-Based Dose Response HTS to Identify Activators of Luciferase Translation or Activity in H4 […] Cells. [Related pubchem assays: 1829 (Project Summary), 1814 (Primary HTS)]; format: functional
[9] = target: T4, Corticotropin-releasing factor receptor 2/Corticotropin-releasing factor-binding protein (Homo sapiens, UniProt P24387+Q13324); experiment: Dose Response confirmation of uHTS hits for small molecule antagonists of the CRF-binding protein and CRF-R2 receptor complex.; format: functional; conditions: read-out: IC50_Mean
T4 sequence (Q13324 whole entry): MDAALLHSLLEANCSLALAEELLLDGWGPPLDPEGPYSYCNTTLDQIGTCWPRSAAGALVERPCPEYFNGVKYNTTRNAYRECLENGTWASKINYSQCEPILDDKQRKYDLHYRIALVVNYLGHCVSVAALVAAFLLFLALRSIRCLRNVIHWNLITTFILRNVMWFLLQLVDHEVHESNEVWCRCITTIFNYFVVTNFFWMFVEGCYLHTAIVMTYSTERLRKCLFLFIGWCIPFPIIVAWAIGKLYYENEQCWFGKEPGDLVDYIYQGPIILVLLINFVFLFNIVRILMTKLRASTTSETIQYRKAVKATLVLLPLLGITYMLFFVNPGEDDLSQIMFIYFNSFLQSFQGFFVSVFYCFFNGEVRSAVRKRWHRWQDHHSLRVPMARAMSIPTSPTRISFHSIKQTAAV
T4 sequence (P24387 whole entry): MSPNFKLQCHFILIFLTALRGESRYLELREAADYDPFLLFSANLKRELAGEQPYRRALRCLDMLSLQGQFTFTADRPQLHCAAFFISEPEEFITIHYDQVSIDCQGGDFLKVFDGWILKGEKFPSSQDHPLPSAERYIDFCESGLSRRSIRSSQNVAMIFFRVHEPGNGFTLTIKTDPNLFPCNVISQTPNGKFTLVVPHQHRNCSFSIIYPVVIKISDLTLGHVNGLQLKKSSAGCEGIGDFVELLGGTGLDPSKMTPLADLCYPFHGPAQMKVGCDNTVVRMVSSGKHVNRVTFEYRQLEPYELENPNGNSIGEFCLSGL

[10] = target: T4, Corticotropin-releasing factor receptor 2/Corticotropin-releasing factor-binding protein; experiment: activators of CRF receptor 2 with binding protein – uHTS hits, confirmation (AID 602473); format: functional; conditions: read-out: EC50_Mean
[11] = control 3'UTR Renilla luciferase suppression, dose response, counter-screen for Shn3 inhibitor project, cell-based, Clone20-Shn3RL, cherry-picked (AID 624133); format: functional
[12] = Shn3 3'UTR reporter inhibitors, dose response, cell-based, Clone20 osteoblasts, firefly luciferase, cherry-picked (AID 624132); format: functional;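 also: firefly luciferase luminescence from reporter carrying the Shn3 3'UTR in osteoblasts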
[13] = target: T5, Carboxy-terminal domain RNA polymerase II polypeptide A small phosphatase 1 (Homo sapiens, UniProt Q9GZU7); experiment: inhibitors of CTDSP1, concentration-response testing, biochemical assay, absorbance-based, actives from ultra-high-throughput screening (AID 540297); format: functional
T5 sequence (Q9GZU7 whole entry): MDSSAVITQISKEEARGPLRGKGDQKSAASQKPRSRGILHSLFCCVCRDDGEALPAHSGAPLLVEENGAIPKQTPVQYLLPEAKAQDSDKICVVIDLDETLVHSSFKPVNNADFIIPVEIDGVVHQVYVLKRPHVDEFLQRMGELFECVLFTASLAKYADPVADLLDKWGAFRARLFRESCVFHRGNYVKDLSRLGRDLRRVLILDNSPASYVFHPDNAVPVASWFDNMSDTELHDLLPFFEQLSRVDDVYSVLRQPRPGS

[14] = inhibitors of clade B AD8 Env fusion, dose response, cell-based, cherry-pick (AID 652062); format: functional;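 also: luciferase signal from cell-cell fusion driven by HIV-1 clade B AD8 Env; potency is for inhibitors of fusion seen as a drop in luminescence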
Paired box protein Pax-8 = Paired box protein Pax-8 (Homo sapiens, UniProt Q06710); experiment: inhibitors of PAX8-driven TPO luciferase reporter, dose response, RMG-I cells, cherry-pick (AID 687027); format: functional, cell-based;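 also: luciferase reporter driven by Pax8 target thyroperoxidase promoter measured by SteadyGlo luminescence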
Paired box protein Pax-8, sequence (Q06710 whole entry): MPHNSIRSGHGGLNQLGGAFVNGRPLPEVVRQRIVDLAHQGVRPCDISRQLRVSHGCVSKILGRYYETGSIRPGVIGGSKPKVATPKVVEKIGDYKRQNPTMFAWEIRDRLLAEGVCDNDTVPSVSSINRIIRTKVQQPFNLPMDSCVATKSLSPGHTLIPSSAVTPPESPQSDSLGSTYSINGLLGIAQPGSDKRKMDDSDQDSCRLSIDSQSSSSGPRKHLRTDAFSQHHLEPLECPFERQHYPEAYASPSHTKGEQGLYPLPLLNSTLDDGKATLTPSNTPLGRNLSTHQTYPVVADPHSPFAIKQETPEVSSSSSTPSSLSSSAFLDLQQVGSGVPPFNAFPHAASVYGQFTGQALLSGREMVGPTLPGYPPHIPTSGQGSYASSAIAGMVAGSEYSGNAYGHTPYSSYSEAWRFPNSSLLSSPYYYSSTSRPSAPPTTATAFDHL

[15] = NIH:OVCAR-3 ovarian cancer cell cytotoxicity, dose response, PAX8 inhibitor project, plate reader, dry powder samples (AID 743044); format: functional, cell-based

CC(C)C(=O)Nc1nnc(SCC(=O)Nc2ccc3c(c2)OCCO3)s1
IC50 (Leucine aminopeptidase): 18.9 µM (active)

Cc1ccccc1NC(=O)CSc1nnc(C)c(O)n1
IC50 [1]: > 66 µM (inactive) | IC50 [2]: > 66 µM (inactive)

O=C1Nc2ccc(Cl)cc2C12Nc1ccccc1-c1nnc(SCc3ccccc3F)nc1O2 (centres undefined)
IC50 (Genome polyprotein): 43.2 µM (active)

CC(C)(C)c1ccc(N2C(=O)CC(C/C=C/c3ccccc3)C2=O)cc1 (centres undefined)
EC50 (cells [3]): > 350 µM (not active) | EC50 (cells [4]): > 350 µM (not active)

COc1ccc(/C=C(/NC(=O)c2ccc([N+](=O)[O-])cc2)C(=O)NC(C)(C)C)cc1
IC50 (Fatty acid synthase [5]): 3.45 µM (active) | IC50 (Fatty acid synthase [6]): 2.56 µM (active)

Cc1cc(C)n2cc(CSc3nnc(N)s3)nc2n1
IC50 [1]: > 66 µM (inactive) | IC50 [2]: > 66 µM (inactive)

O=C(O)CC(Cc1ccccc1)C(=O)Nc1ccc([N+](=O)[O-])cc1 (centres undefined)
IC50 (Leucine aminopeptidase): 15.7 µM (active)

C#CCOc1ccc(/C=C2/C(=O)ON=C2C)cc1Cl
IC50 (Genome polyprotein): 97.1 µM (active)

COc1ccccc1-n1cc(-c2ccc([N+](=O)[O-])cc2)nc1S
IC50 [1]: > 66 µM (inactive) | IC50 [2]: > 66 µM (inactive)

O=C1NC(=S)N/C1=C/C=C/c1ccccc1
IC50 (Genome polyprotein): 99.8 µM (active)

O=C(NC(=S)Nc1ccccc1)c1cc([N+](=O)[O-])ccc1N1CCOCC1
IC50 (Fatty acid synthase [5]): 17.2 µM (active) | IC50 (Fatty acid synthase [6]): 8.19 µM (active)

O=C(COC(=O)CCc1c[nH]c(O)n1)Nc1ccccc1
IC50 [1]: 44.9 µM (inactive) | IC50 [2]: > 66 µM (inactive)

CCCNC(=O)c1cc(-c2ccco2)on1
EC50 (cells [3]): > 350 µM (not active) | EC50 (cells [4]): 10 µM (active) | EC50 [7]: 13.7 µM (active) | EC50 (H4): 50.4 µM (active) | EC50 [8]: 59.3 µM (active)

CN(C)c1nc2n(c(=O)n1)C(C#N)CS2 (centres undefined)
IC50 [1]: > 66 µM (inactive) | IC50 [2]: > 66 µM (inactive)

N#Cc1c(NC(=O)Cn2cnc3ccccc3c2=O)oc(-c2ccccc2)c1-c1ccccc1
IC50 (Leucine aminopeptidase): 1.47 µM (active)

O=C(O)c1ccc2c(c1)NC(=O)C(N1CCCC1)S2 (centres undefined)
IC50 [1]: 55.5 µM (inactive) | IC50 [2]: > 66 µM (inactive)

COc1ccc(C(=O)N/C(=C\c2cn(S(=O)(=O)N(C)C)c3ccccc23)C(=O)NCCCN2CCOCC2)cc1
IC50 (Fatty acid synthase [5]): 8.48 µM (active) | IC50 (Fatty acid synthase [6]): 7.83 µM (active)

CN1C[C@H](C(=O)N[C@]2(C)O[C@@]3(O)[C@@H]4CCCN4C(=O)[C@H](Cc4ccccc4)N3C2=O)CC2c3cccc4[nH]cc(c34)C[C@H]21 (some centres undefined)
IC50 (Fatty acid synthase [5]): 10.4 µM (active) | IC50 (Fatty acid synthase [6]): 8.09 µM (active)

CCOc1ccc(NC(=O)Cc2ccccc2)c([N+](=O)[O-])c1
IC50 (Leucine aminopeptidase): 2.92 µM (active)

O=C(CN1C(=O)c2ccccc2C1=O)NCC1COc2ccccc2O1 (centres undefined)
IC50 (Leucine aminopeptidase): 15.6 µM (active)

CCCCCCn1c(=O)c(F)cn(Cc2ccc(OC)c([N+](=O)[O-])c2)c1=O
IC50 [9]: > 47.1 µM (inactive) | IC50 (Fatty acid synthase [5]): 10.2 µM (active) | EC50 [10]: > 53 µM (inactive) | IC50 (Fatty acid synthase [6]): 11.3 µM (active)

CCOC(=O)c1sc(=S)n(-c2ccc3c(c2)OCO3)c1N
IC50 [1]: > 66 µM (inactive) | IC50 [2]: > 66 µM (inactive)

O=C(Nn1c(C2CCCCC2)nc2ccccc2c1=O)c1ccc(Cl)c([N+](=O)[O-])c1
IC50 (Fatty acid synthase [5]): 12.8 µM (active) | IC50 (Fatty acid synthase [6]): 11.2 µM (active)

CCN(c1ccccc1)S(=O)(=O)c1ccc(Cl)c(NC(=O)CN(C)Cc2cccc(F)c2)c1
AC50 [11]: 6.46 µM (active) | AC50 [12]: 8.78 µM (active)

Cc1ccc([C@@H]2CC=C(C(=O)O)[C@H](c3ccc(Br)cc3)N2S(=O)(=O)c2ccc(C)cc2)cc1
IC50 (Genome polyprotein): 42.5 µM (active)

CCc1cccc(CC)c1NC(=O)CSc1nnc(CCC(=O)O)c(O)n1
IC50 [1]: > 66 µM (inactive) | IC50 [2]: > 66 µM (inactive)

N#Cc1c(C(F)(F)F)cc(-c2cccs2)nc1SC(C(=O)O)c1ccccc1 (centres undefined)
IC50 (Fatty acid synthase [5]): 4.45 µM (active) | IC50 (Fatty acid synthase [6]): 5.81 µM (active)

Cc1cccc(C(=O)Oc2ccc(/C=N/NC(=O)c3cc(O)cc(O)c3)cc2)c1
IC50 [13]: 4.14 µM (active)

CC(=O)NS(=O)(=O)c1ccc(/N=c2\ssc3c2-c2cc(C)c(C)cc2NC3(C)C)cc1
IC50 (Leucine aminopeptidase): 3.72 µM (active)

CC(C)(C)c1ccc(C(=O)N2CCC2(C)C(=O)Nc2cccc(C#N)c2)cc1 (centres undefined)
IC50 (Fatty acid synthase [5]): 5.47 µM (active) | IC50 (Fatty acid synthase [6]): 7.78 µM (active)

O=C1COc2ccc(-c3cs/c(=N\c4ccc(OC(F)F)cc4)n3CC3CCCO3)cc2N1 (centres undefined)
AC50 [14]: 18.6 µM (active)

C[C@@H]1CN([C@H](C)CO)C(=O)c2cc(NC(=O)Nc3ccc(F)cc3)ccc2O[C@@H](C)CCCCO[C@H]1CN(C)S(=O)(=O)c1ccccc1
AC50 (Paired box protein Pax-8): 4.82 µM (active) | AC50 [15]: 35.3 µM (active)

CN(C)c1ccc(/C=N/NC(=O)c2nonc2N)cc1[N+](=O)[O-]
IC50 (Leucine aminopeptidase): 56.1 µM (active)

CCC(C)CCCCCCCCCCC(=O)O (centres undefined)
IC50 (Genome polyprotein): 42 µM (active)
